Test results taken from the supplement of paper PMC10307832.

Experiments:
Test in all cases: relative viability (nuclei count vs DMSO), 5 days (fraction); higher = more cells survive
QS11 + Tozasertib = compound: C1CC2=C(C1)C=C(C=C2)OC3=NC(=C4C(=N3)N(C=N4)CC5=CC=C(C=C5)C6=CC=CC=C6)N[C@@H](CC7=CC=CC=C7)CO [QS11] + Cc1cc(Nc2cc(N3CCN(C)CC3)nc(Sc3ccc(NC(=O)C4CC4)cc3)n2)n[nH]1 [Tozasertib] (partner 0.1 µM)
Outline: (§1)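 Each reported value is a median over duplicate plates. It expresses relative viability: treated-well nuclei count divided by vehicle-well nuclei count. Lung cancer cell lines in 1536-well plates were dosed by pin tool a day after seeding, alone with one drug or with a fixed anchor-drug dose plus five library-drug doses (not always all listed) in √10 steps, and nuclei were counted after 5 days.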

AZ628 + OSI-027 = compound: CC1=C(C=C(C=C1)NC(=O)C2=CC(=CC=C2)C(C)(C)C#N)NC3=CC4=C(C=C3)N=CN(C4=O)C [AZ628] + COc1cccc2cc(-c3nc([C@H]4CC[C@H](C(=O)O)CC4)n4ncnc(N)c34)[nH]c12 [OSI-027] (partner 0.5 µM)
Outline: as §1

[1] = compound: C[As](C)SC[C@H](NC(=O)CC[C@H](N)C(=O)O)C(=O)NCC(=O)O [Darinaparsin] + C[C@]1(O)C[C@@H](c2nc(-c3ccc4ccc(-c5ccccc5)nc4c3)c3c(N)nccn32)C1 [Linsitinib] (partner 1 µM)
Outline: as §1

[2] = compound: C[As](C)SC[C@H](NC(=O)CC[C@H](N)C(=O)O)C(=O)NCC(=O)O [Darinaparsin] + Nc1ncn([C@H]2C[C@H](O)[C@@H](CO)O2)c(=O)n1 [Decitabine] (partner 2 µM)
Outline: as §1

Cell Line	relative viability (QS11 + Tozasertib; first compound 0.08 µM)	relative viability (QS11 + Tozasertib; first compound 0.253 µM)	relative viability (QS11 + Tozasertib; first compound 0.8 µM)	relative viability (QS11 + Tozasertib; first compound 2.53 µM)	relative viability (QS11 + Tozasertib; first compound 8 µM)	relative viability (AZ628 + OSI-027; first compound 0.08 µM)	relative viability (AZ628 + OSI-027; first compound 0.253 µM)	relative viability (AZ628 + OSI-027; first compound 0.8 µM)	relative viability (AZ628 + OSI-027; first compound 2.53 µM)	relative viability (AZ628 + OSI-027; first compound 8 µM)	relative viability ([1]; first compound 0.08 µM)	relative viability ([1]; first compound 0.8 µM)	relative viability ([1]; first compound 2.53 µM)	relative viability ([1]; first compound 8 µM)	relative viability ([2]; first compound 0.08 µM)	relative viability ([2]; first compound 0.8 µM)	relative viability ([2]; first compound 2.53 µM)	relative viability ([2]; first compound 8 µM)
HCC-827	0.389	0.416	0.315	0.433	0.457	0.741	0.82	0.796	0.703	0.418	1.01	0.93	0.965	1.09	0.284	0.316	0.32	0.363
HOP-62	0.363	0.442	0.31	0.281	0.302	0.828	0.857	0.831	0.857	0.43	1.25	0.94	0.899	1.02	0.233	0.27	0.235	0.23
IA-LM	–	–	–	–	–	–	–	–	–	–	0.949	0.8	0.533	0.681	–	–	–	–
LC-2-ad	0.445	0.471	0.476	0.507	0.439	0.817	0.87	0.779	0.821	0.703	0.98	0.808	0.812	0.843	0.905	0.838	0.786	0.899
LCLC-103H	0.389	0.496	0.358	0.477	0.43	0.418	0.438	0.531	0.403	0.423	1.12	1.05	0.936	1.24	0.788	0.722	0.715	0.8
LK-2	0.177	0.194	0.181	0.173	0.19	0.191	0.234	0.234	0.187	0.198	0.486	0.459	0.658	0.637	0.281	0.235	0.277	0.333
LOU-NH91	0.67	0.647	0.629	0.597	0.572	0.72	0.712	0.651	0.664	0.569	0.962	0.92	0.952	0.946	0.876	0.771	0.782	0.799
LU99A	0.269	0.285	0.273	0.296	0.245	0.271	0.313	0.268	0.288	0.239	0.618	0.633	0.475	0.581	0.887	0.863	0.925	1.06
LXF-289	0.159	0.197	0.147	0.213	0.253	0.812	0.763	0.736	0.74	0.434	0.986	0.995	0.796	1.04	0.41	0.424	0.347	0.4
NCI-H23	0.277	0.413	0.273	0.253	0.266	0.568	0.528	0.464	0.474	0.309	0.661	0.635	0.482	0.685	0.341	0.292	0.35	0.311
NCI-H322M	0.479	0.479	0.45	0.545	0.64	0.503	0.534	0.541	0.532	0.482	1.05	0.998	0.736	0.956	0.704	0.686	0.577	0.724
NCI-H522	0.494	0.616	0.47	0.627	1.58	0.799	0.668	0.658	0.644	0.641	–	–	–	–	0.626	0.627	0.711	0.705
NCI-H1299	–	–	–	–	–	–	–	–	–	–	1.1	1	0.912	1.2	–	–	–	–
NCI-H1563	–	–	–	–	–	0.787	0.726	0.718	0.788	0.792	1.23	1.14	1.21	1.3	–	–	–	–
NCI-H1623	0.449	0.546	0.427	0.466	0.434	0.452	0.388	0.245	0.36	0.225	–	–	–	–	–	–	–	–
NCI-H1648	–	0.577	–	0.396	0.642	0.254	0.276	0.253	0.255	0.244	–	–	–	–	–	0.474	–	0.494
NCI-H1650	0.244	0.368	0.436	0.358	0.402	0.642	0.793	0.666	0.557	0.458	–	–	–	–	0.325	0.41	0.397	0.359
NCI-H1703	–	–	–	–	–	–	–	–	–	–	1.42	0.774	0.797	0.799	–	–	–	–
NCI-H1792	–	–	–	–	–	0.735	0.516	0.474	0.428	0.233	0.571	0.488	0.402	0.536	0.694	0.512	–	0.588
NCI-H2170	0.803	0.662	0.671	0.742	0.721	0.836	0.676	0.717	0.749	0.578	–	–	–	–	0.488	0.502	0.544	0.458
NCI-H2228	0.195	0.241	0.309	0.296	0.289	0.627	0.521	0.519	0.623	0.281	0.817	0.702	0.743	0.746	–	–	–	–
NCI-H2342	0.479	0.46	0.62	0.474	0.436	0.717	0.589	0.569	0.64	0.669	–	–	–	–	0.712	0.688	0.76	0.702
SW 900	0.573	0.479	0.521	0.408	0.296	0.61	0.566	0.501	0.345	0.474	–	–	–	–	0.44	–	0.404	0.462
